For data set [1], the system named is Mus musculus. Put plainly: Antimalarial activity was evaluated against Plasmodium vinckei vinckei V52 after intraperitoneal administration at dose 50 mg/kg. The format is functional.
The subject of data set [2] is Mus musculus. Put plainly: Antimalarial activity was evaluated against Plasmodium vinckei vinckei V52 after intraperitoneal administration at dose 40 mg/kg. The format is functional.
In data set [3] the test system is Plasmodium vinckei vinckei. Put plainly: Antimalarial activity against Plasmodium vinckei V52 on 10 mg/kg intraperitoneal dose. The format is functional.
For data set [4], the system named is Mus musculus. Put plainly: Antimalarial activity was evaluated against Plasmodium vinckei V52 after intraperitoneal administration at dose 15 mg/kg. The format is functional.
The subject of data set [5] is Plasmodium vinckei vinckei. Put plainly: Antimalarial activity against Plasmodium vinckei V52 on 30 mg/kg intraperitoneal dose. The format is functional.
For data set [6], the system named is Plasmodium vinckei vinckei. Put plainly: Antimalarial activity against Plasmodium vinckei V52 after 20 mg/kg intraperitoneal dose. Format: functional.
In data set [7] the test system is Mus musculus. Put plainly: Increase in mean survival days was determined in mice after ip administration of 10 mg/kg. Format: functional. The settings on record: route intraperitoneal.
In data set [8] the test system is Mus musculus. Put plainly: Increase in mean survival days was determined in mice after ip administration of 60 mg/kg. Format: functional. The settings on record: route intraperitoneal.
Data set [9] deals with Mus musculus. Put plainly: Antimalarial activity was evaluated against Plasmodium vinckei vinckei V52 after intraperitoneal administration at dose 25 mg/kg. Format: functional.
In data set [10] the test system is Mus musculus. Put plainly: Antimalarial activity was evaluated against Plasmodium vinckei V52 after intraperitoneal administration at dose 70 mg/kg. The format is functional.
Data set [11] relates to Mus musculus. Put plainly: (§1) Increase in mean survival days was determined in mice after ip administration of 70 mg/kg; toxic. The format is functional. The settings on record: route intraperitoneal.
The species named for data set [12] is Mus musculus. Put plainly: Effective dose required to obtain a parasitaemia of 40% 48 hours after treatment in mice. Format: functional.
The subject of data set [13] is Mus musculus. Put plainly: Antimalarial activity was evaluated against Plasmodium vinckei vinckei V52 after intraperitoneal administration at dose 60 mg/kg. Format: functional.
Data set [14] relates to Mus musculus. Put plainly: Increase in mean survival days was determined in mice after ip administration of 30 mg/kg. The format is functional. The conditions noted are these: route intraperitoneal.
For data set [15], the system named is Mus musculus. Described as §1. Format: ADME, organism-based. The arrangement: dose 70 mg/kg, route intraperitoneal. The conditions noted are these: in vivo.
Data set [16] deals with Mus musculus. Put plainly: Antimalarial activity was evaluated against Plasmodium vinckei V52 after intraperitoneal administration at dose 40 mg/kg. The format is functional.
The test system of data set [17] is Mus musculus. Put plainly: Antimalarial activity was evaluated against Plasmodium vinckei V52 after intraperitoneal administration at dose 50 mg/kg. Format: functional.
Data set [18] concerns Mus musculus. Put plainly: Increase in mean survival days was determined in mice after ip administration of 40 mg/kg. The format is functional. The settings on record: route intraperitoneal.
Data set [19] deals with Mus musculus. Put plainly: Increase in mean survival days was determined in mice after ip administration of 50 mg/kg; toxic. Format: functional. The conditions noted are these: route intraperitoneal.
The test system of data set [20] is Plasmodium vinckei vinckei. Put plainly: Antimalarial activity against Plasmodium vinckei V52 on 70 mg/kg intraperitoneal dose. The format is functional.
The test system of data set [21] is Mus musculus. Put plainly: Increase in mean survival days was determined in mice after ip administration of 50 mg/kg. The settings on record: route intraperitoneal. Format: functional.
Data set [22] relates to Mus musculus. Put plainly: Antimalarial activity was evaluated against Plasmodium vinckei V52 after intraperitoneal administration at dose 30 mg/kg. The format is functional.
The subject of data set [23] is Mus musculus. Put plainly: Antimalarial activity was evaluated against Plasmodium vinckei vinckeii V52 after intraperitoneal administration at dose 60 mg/kg. Format: functional.
In data set [24] the test system is Plasmodium vinckei vinckei. Put plainly: Increase in mean survival days of Plasmodium inoculated mice (Mus musculus) after 70 mg/Kg intraperitoneal dose. The format is functional.
The test system of data set [25] is Mus musculus. Put plainly: Antimalarial activity was evaluated against Plasmodium vinckei V52 after intraperitoneal administration at dose 10 mg/kg. Format: functional.
Data set [26] relates to Mus musculus. Put plainly: Increase in mean survival days was determined in mice after ip administration of 15 mg/kg. The format is functional. The settings on record: route intraperitoneal.
Data set [27] concerns Mus musculus. Put plainly: Increase in mean survival days was determined in mice after ip administration of 20 mg/kg. Format: functional. The settings on record: route intraperitoneal.
Data set [28] concerns Mus musculus. Put plainly: Increase in mean survival days was determined in mice after ip administration of 25 mg/kg. Format: functional. The settings on record: route intraperitoneal.
Data set [29] relates to Mus musculus. Put plainly: Antimalarial activity was evaluated against Plasmodium vinckei V52 after intraperitoneal administration at dose 25 mg/kg. The format is functional.
For data set [30], the system named is Mus musculus. Put plainly: Antimalarial activity was evaluated against Plasmodium vinckei vinckeii V52 after intraperitoneal administration at dose 50 mg/kg. The format is functional.
In data set [31] the test system is Mus musculus. Put plainly: Antimalarial activity was evaluated against Plasmodium vinckei V52 after intraperitoneal administration at dose 20 mg/kg. Format: functional.
Data set [32] has as its system Mus musculus. Put plainly: Increase in mean survival days was determined in mice after ip administration of 30 mg/kg; toxic. Format: functional. The conditions noted are these: route intraperitoneal.
For data set [33], the system named is Mus musculus. Put plainly: Increase in mean survival days was determined in mice after ip administration of 20 mg/kg; toxic. The format is functional. The conditions noted are these: route intraperitoneal.
In data set [34] the test system is Mus musculus. Put plainly: Antimalarial activity was evaluated against Plasmodium vinckei V52 after intraperitoneal administration at dose 60 mg/kg. The format is functional.

Each structure is given as a SMILES string.

Consider `Cn1c(=O)nc2n(-c3cccc(C(F)(F)F)c3)c3ccccc3nc-2c1=O`, for which the Cured in data set [1] was determined as 100%; in [2] it was 100%; in data set [3], 33%; in data set [4], 100%; in data set [5], 100%; in data set [6], 100%. Moreover, the values for the Cured in data set [9], in data set [10] and in data set [13] were 100%, 0% and 40%, respectively. Further, the Mean survival days in data set [7] was 1.4 days; in data set [8], 10 days; in data set [11] it was 7.5 days. In data set [12], this compound gave an ED40 of 79.3 µmol/kg.

On to `Cn1c(=O)nc2n(-c3cc(Cl)ccc3Cl)c3ccccc3nc-2c1=O`, for which the Cured in data set [3], in data set [5] and in data set [10] was 0% throughout. In addition, the Mean survival days in [14] was 0 days; in data set [15], -0.6 days; in data set [7] it was 0 days.

Take `Cn1c(=O)nc2n(-c3ccc(S(C)(=O)=O)cc3)c3ccccc3nc-2c1=O`: the Cured in data set [3], in data set [5], in data set [16], in data set [17] and in data set [20] was 0% each time. The Mean survival days in data set [14] is 0.2 days; in [7], 0 days; in data set [18], -0.5 days; in [19] it was -0.8 days; in data set [11], -2 days.

As to `COc1cc(OC)cc(-n2c3nc(=O)n(C)c(=O)c-3nc3ccccc32)c1`, the Cured in [1] stood at 0%; in [3], 0%; in data set [6], 0%; in data set [20] it was 100%; in [13], 20%. The Mean survival days was determined as 0 days in [14], 0 days in [7], 3 days in data set [8] and 0 days in data set [21]. In addition, the ED40 in data set [12] was 219 µmol/kg.

In the case of `Cn1c(=O)nc2n(-c3cccc([N+](=O)[O-])c3)c3ccccc3nc-2c1=O`, the Cured in data set [22], in data set [23], in data set [10] and in [25] was 0% each time. For the same compound, the Mean survival days in data set [24] is -0.5 days; in [8], 1 days.

Regarding `Cn1c(=O)nc2n(-c3cccc(F)c3)c3ccccc3nc-2c1=O`, the Cured in data set [2] turned out to be 0%; in data set [3], 0%; in data set [4], 0%; in data set [5], 0%; in data set [17], 20%; in data set [6] it was 0%. For the same compound, the Cured in data set [20] and in data set [29] was 0% throughout. Besides, the Mean survival days in data set [26] is 0.2 days; in [14], 0.2 days; in data set [27] it was 0 days; in data set [7], 0.2 days; in data set [18] it was 0.8 days; in [11], -1 days. Besides, the Mean survival days in data set [28] and in data set [21] was 0 days in each case.

For `CCc1cccc(-n2c3nc(=O)n(C)c(=O)c-3nc3ccccc32)c1`, the Mean survival days in [26] turned out to be 0 days; in data set [14], 0 days; in [27] it was 0 days; in [24] it was 0.3 days; in data set [28] it was 0 days. The Cured in data set [3], in data set [5], in data set [6], in [9] and in [10] was 0% in each case.

As to `Cn1c(=O)nc2n(-c3cc(C(F)(F)F)cc(C(F)(F)F)c3)c3ccccc3nc-2c1=O`, the Cured in data set [30], in [22], in data set [31], in data set [10] and in [25] was 0% in each case. Also, the Mean survival days in data set [14], in [27], in [24], in data set [7] and in data set [21] was 0 days throughout.

As to `Cc1ccccc1-n1c2nc(=O)n(C)c(=O)c-2nc2ccccc21`, the Cured in data set [3], in data set [5] and in data set [6] was 0% in each case. Moreover, the Mean survival days in data set [32] was -2 days; in data set [7], -0.2 days; in data set [33] it was -1 days.

For `Cc1cc(-n2c3nc(=O)n(C)c(=O)c-3nc3ccccc32)ccc1Cl`, the Cured in data set [3] was determined as 0%; in data set [16], 0%; in data set [17], 25%; in data set [6], 0%; in [34] it was 100%; in data set [20] it was 80%. The Mean survival days was found to be 0 days in [14]; 2 days in [24]; 0 days in data set [7]; 0.3 days in data set [18]; 0.3 days in data set [21]. The compound further gave an ED40 in data set [12] of 182 µmol/kg.

Consider `CCCCc1ccc(-n2c3nc(=O)n(C)c(=O)c-3nc3ccccc32)cc1`, for which the Cured in data set [1], in data set [3], in data set [4], in [5], in data set [6] and in data set [9] was 0% each time. Besides, the Cured in data set [10] is 0%. Besides, the Mean survival days in [26] worked out at 0 days; in [14] it was 0 days; in data set [27], 0 days; in [24] it was 0.5 days; in data set [7], 0 days; in [28], 0.1 days. The Mean survival days in data set [21] came to 0 days.

On to `COc1ccc(-n2c3nc(=O)n(C)c(=O)c-3nc3ccccc32)cc1`, for which the Cured in data set [3] is listed as 0%; in data set [16], 20%; in [17], 80%; in data set [6], 0%; in data set [34], 80%; in [20] it was 60%. The Mean survival days was 0.4 days in data set [14]; -0.5 days in data set [15]; 0 days in [7]; 1 days in data set [18]; 1 days in data set [8]; 2 days in data set [21]. Also, in data set [12], the ED40 was 138 µmol/kg.

With `Cc1cccc(-n2c3nc(=O)n(C)c(=O)c-3nc3ccccc32)c1`, the Mean survival days worked out at 0 days in data set [26]; 0 days in data set [14]; 0.5 days in [27]; 0.3 days in data set [24]; 0.8 days in data set [7]; 0 days in [28]. Also, in data set [21], the Mean survival days was 0.5 days. In addition, the Cured in data set [3], in data set [4], in data set [5], in data set [17], in data set [6] and in data set [20] was 0% throughout. The compound further displayed a Cured in [29] of 0%.

(Values after ChEMBL document CHEMBL1125711, “Flavins as potential antimalarials. 2. 3-Methyl-10-(substituted-phenyl) flavins” (J Med Chem, 1991).)
